From patent US7087619B2, “Method for the treatment of urinary incontinence” (Endo Pharmaceuticals, Inc., priority 1995, dated 2006)

Tests used:
[1] = literature report; cited from earlier work
[2] = system: female Sprague-Dawley rats; assay: Non-stop transvesical cystometrogram in urethane-anesthetized rats (continuous cystometry); assay type: in vivo
Description: Ten female Sprague-Dawley rats having a mean weight of 263±19 g were anesthetized with urethane (1.2 g/k, sc.). A midline incision was performed to expose the bladder and a 23G catheter was inserted into the bladder dome for the measurement of intravesical pressure. A non-stop transvesical cystometrogram, as described in J. Pharmacological. Methods, 15, pp. 157-167 (1986), was used, at a filling rate of 0.216 ml/min. of saline, to access the filling and voiding characteristics of the bladder. Through the continuous cystometry method thus afforded, consecutive micturition could be recorded. Dextromethorphan was given at intravenous does of: 1.0, 3.0, 10, 30, 50 mg/kg after the initial baseline micturition sequence was reliably measured for approximately 12 min. From these recordings the absolute values in maximum pressure obtained and the frequency of micturition was measured. A dose response curve illustrating the effect of dextromethorphan on the absolute micturition pressures in the range of 1-50 mg/kg is given in FIG. 1. Data given are mean and SE.

| Compound | frequency in micturition [1] | volume evoked micturition reflex ([2]; increasing intravenous doses 1.0-50 mg/kg, cystometrogram, anesthetized rats) | reduction in detrusor pressure ([2]; intravenous 10 mg/kg) [%] | frequency of micturition ([2]; intravenous 1-50 mg/kg, dose response, FIG. 2) | reduction in detrusor pressure ([2]; intravenous dose level of 3 mg/kg) | effect on detrusor pressure at high doses (initial increase before suppression) ([2]; intravenous doses higher than 10 mg/kg) | volume evoked micturition contractions ([2]; intravenous doses in the range of 10-30 mg/kg) |
| --- | --- | --- | --- | --- | --- | --- | --- |
| C[C@]12N[C@H](Cc3ccccc31)c1ccccc12 [MK-801] | increase in frequency in micturition |  |  |  |  |  |  |
| COc1ccc2c(c1)[C@@]13CCCC[C@H]1[C@@H](C2)N(C)CC3 [dextromethorphan, (+)-3-methoxy-N-methylmorphinan] |  | suppressed in a dose sensitive manner | 50 | decrements gradually with respect to dose | significant sustained reduction | bimodal, producing an initial increase in detrusor pressure before suppression | almost totally suppressed |
